Measured values published in article PMC6515340, “Synthesis of a Fluorous-Tagged Hexasaccharide and Interaction with Growth Factors Using Sugar-Coated Microplates” (Molecules, 2019).
“And” between values parts separate entries of the source, which are not always exact repeats. Identical values can stand only once. “Also recorded” adds a separate entry of the source. Like-named read-outs stand apart in the source and are kept apart here.

What was measured:
[1] = target: T1, FGF-2 (Homo sapiens, UniProt P09038); experiment: Fluorous sugar-coated microplate direct binding assay, FGF-2; design: purchased Peprotech
Description: (§1) An alternative strategy was also considered to study these molecular recognition events. This approach involved the non-covalent immobilization of the fluorinated hexamer 17 on microtiter plates (Figure 1). Fluorous-based microarrays for the investigation of carbohydrate-protein interactions have been previously developed. A C8F17 tail was employed for the noncovalent immobilization of sugar derivatives on fluorous coated glass slides. However, to the best of our knowledge, an experimental protocol to study the interactions between fluorous sugar-coated conventional microplates and proteins has not been published. […] Thus, we created a fluorinated surface ready for the immobilization of compound 17 through noncovalent fluorous-fluorous interactions. […] Then, the binding of the attached sugar 17 to growth factors was analyzed. Incubation with different concentrations of midkine, FGF-2 and NGF was carried out and the bound protein was detected by further incubations with the corresponding primary and fluorescently labelled secondary antibodies (see Materials and Methods). Finally, the fluorescence was recorded using a standard microplate reader. The observation of fluorescence signals confirmed the interaction between immobilized 17 and the protein at a particular concentration. […]
(§2) The fluorescence was read at 535 nm using a TRIAD multimode microplate reader (from Dynex). […]
Target sequence in this assay (P09038 135-288 limits assumed): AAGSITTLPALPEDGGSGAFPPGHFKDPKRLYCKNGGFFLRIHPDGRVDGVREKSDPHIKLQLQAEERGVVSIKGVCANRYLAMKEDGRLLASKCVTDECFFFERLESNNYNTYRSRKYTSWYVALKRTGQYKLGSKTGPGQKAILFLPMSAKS

[2] = target: T2, Recombinant human NGF (Homo sapiens, UniProt P01138); experiment: Fluorous sugar-coated microplate direct binding assay, NGF
T2 construct: purchased Peprotech
T2 sequence (P01138 122-241): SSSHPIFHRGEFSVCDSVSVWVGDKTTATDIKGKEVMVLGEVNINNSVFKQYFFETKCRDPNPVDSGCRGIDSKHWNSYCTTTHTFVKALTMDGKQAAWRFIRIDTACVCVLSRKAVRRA
Description: as §1, §2

[3] = target: T3, midkine (Homo sapiens, UniProt P21741); experiment: Fluorous sugar-coated microplate direct binding assay, midkine; design: purchased Peprotech
T3 sequence (P21741 21-143): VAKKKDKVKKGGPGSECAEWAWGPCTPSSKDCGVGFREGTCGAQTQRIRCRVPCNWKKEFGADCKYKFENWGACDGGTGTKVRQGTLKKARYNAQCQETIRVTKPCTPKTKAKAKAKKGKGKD
Description: as §1, §2

[4] = target: T4, bovine serum albumin (Bos taurus, UniProt P02769); experiment: Sugar-coated microplate control with FITC-labelled bovine serum albumin; format: binding; details: fluorescently labelled protein at 11 µM
T4 construct: purchased Sigma-Aldrich
T4 sequence (P02769 25-607): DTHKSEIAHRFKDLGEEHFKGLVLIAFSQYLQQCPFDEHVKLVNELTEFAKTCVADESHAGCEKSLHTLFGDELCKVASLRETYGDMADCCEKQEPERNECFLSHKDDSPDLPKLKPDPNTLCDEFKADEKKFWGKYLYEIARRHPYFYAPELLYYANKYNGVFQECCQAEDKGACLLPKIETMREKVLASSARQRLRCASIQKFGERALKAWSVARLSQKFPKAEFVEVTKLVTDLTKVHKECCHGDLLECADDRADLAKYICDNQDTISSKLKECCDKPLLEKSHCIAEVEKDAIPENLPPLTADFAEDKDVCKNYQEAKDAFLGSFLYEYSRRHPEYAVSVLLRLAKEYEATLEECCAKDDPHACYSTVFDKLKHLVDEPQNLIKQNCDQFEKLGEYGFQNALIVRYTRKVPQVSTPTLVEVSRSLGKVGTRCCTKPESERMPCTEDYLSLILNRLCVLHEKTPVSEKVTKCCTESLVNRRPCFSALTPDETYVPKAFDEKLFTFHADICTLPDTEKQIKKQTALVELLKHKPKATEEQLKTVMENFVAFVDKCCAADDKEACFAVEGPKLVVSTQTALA
Protocol: (§3) Importantly, we performed a control experiment in which sugar 3, instead of hexamer 17, was immobilized on the fluorous-functionalized plate (see Supplementary Materials). […] In addition, wells coated with hexamer 17 were incubated with two fluorescently labelled non-GAG binding proteins, Concanavalin A and bovine serum albumin, at 11 µM concentration (see Supplementary Materials). Again, we observed no fluorescence signals from these wells.
(§4) 2. Control experiments using additional (irrelevant) proteins.
(§5) The wells of Nunc Immobilizer AminoTM 384 microtiter plates were functionalized with heptadecafluorononylamine linker and then filled with a solution of hexamer 17 as described in the Materials and Methods section of the main text. The resulting hexasaccharide 17-coated wells were ready to perform protein interaction studies. Blank wells were coated with the fluorous linker alone. […]
(§6) Finally, the fluorescence was read at 535 nm using a TRIAD multimode microplate reader (from Dynex). For each protein, the residual fluorescence intensities obtained from blank samples were subtracted from the sugar-coated well values. In Figure S4, we show the average fluorescence intensities of three replicates after incubation with BSA and ConA. For comparison purposes, we also display the fluorescence values obtained after incubation with a 375 nM solution of midkine (detected by antibody incubations). […]

[5] = target: T5, Concanavalin A (Canavalia ensiformis, UniProt P02866); experiment: Sugar-coated microplate control with FITC-labelled Concanavalin A; format: binding; details: fluorescently labelled protein at 11 µM
T5 construct: purchased Sigma
Protocol: as §3, §4, §5, §6

[6] = target: T3, midkine; experiment: Fluorescence polarization (FP) competition experiment, midkine; format: binding; details: midkine 63 nM
Description: (§7) Thus, we initiated the study of the interactions between 17 and midkine, FGF-2 and NGF growth factors. First, we estimated the solution-phase binding affinities using our previously reported fluorescence polarization (FP) competition experiment (see Supplementary Materials). Briefly, we measured the ability of hexasaccharide 17 to compete with a fluorescent probe for protein binding. Thus, we calculated IC50 values as 17 concentration required for 50% inhibition. […] We also attempted to measure the binding of 17 to NGF.
(§8) Fluorescence polarization assays
(§9) In order to calculate IC 50 values, fluorescence polarization competition experiments were performed following our previously reported protocol. 1 Briefly, we recorded the fluorescence polarization from wells containing 20 µL of protein solution (midkine or FGF-2) and 10 µL of probe solution (a fluorescein labelled heparin-like hexasaccharide) in the presence of 10 µL of 17 solutions with different concentrations. 384-well microplates from Corning were used in these assays. After shaking in the dark for 5 min, the fluorescence polarization was measured using a TRIAD multimode microplate reader (from Dynex), with excitation and emission wavelengths of 485 and 535 nm, respectively. […]
(also on this page, place not known: r 2 Fluorescence Polarization (mP) r 2 Fluorescence Polarization (mP) r 2 Fluorescence Polarization (mP))

[7] = target: T1, FGF-2; experiment: Fluorescence polarization (FP) competition experiment, FGF-2; format: binding; details: solution FP competition with fluorescent heparin-like hexasaccharide probe (10 nM), FGF-2 97 nM; average ± SD of three independent experiments
Description: as §7, §8, §9
Target sequence in this assay (P09038 143-288): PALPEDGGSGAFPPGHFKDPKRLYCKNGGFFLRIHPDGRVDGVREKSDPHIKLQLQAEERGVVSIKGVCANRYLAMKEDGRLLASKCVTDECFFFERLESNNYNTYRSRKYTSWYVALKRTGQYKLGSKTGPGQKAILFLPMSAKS
(also on this page, place not known: r 2 Fluorescence Polarization (mP) IC50 r 2 Fluorescence Polarization (mP) IC50 r 2 Fluorescence Polarization (mP))

[8] = read-out: KD,surf, sugar immobilized on fluorous-functionalized microplate, one-site binding model

Row | SMILES | fluorescence signal / interaction of immobilized sugar with FGF-2 ([1]; control, sugar immobilized from 250 µM solution, 387 nM FGF-2) | fluorescence signal / interaction of immobilized sugar with NGF ([2]; control, sugar immobilized from 250 µM solution, 1.8 µM NGF) | fluorescence signal / interaction of immobilized sugar with midkine ([3]; control, sugar immobilized from 250 µM solution, 375 nM midkine) | interaction of immobilized sugar with bovine serum albumin [4] | Kd [1, 8] [nM] | Kd [2, 8] [nM] | interaction of immobilized sugar with Concanavalin A [5] | IC50 ([6]; Figure S1, individual competition curves, probe 10 nM, read-out: IC50 (single independent experiment)) | IC50 ([6]; solution FP competition with fluorescent heparin-like hexasaccharide probe (10 nM), average ± SD of three independent experiments, read-out: IC50) [nM] | IC50 [7] [nM] | Kd [3, 8] [nM]
1 | COc1ccc(O[C@@H]2O[C@H](COC(=O)CCC(F)(F)C(F)(F)C(F)(F)C(F)(F)C(F)(F)C(F)(F)C(F)(F)C(F)(F)F)[C@@H](O)[C@H](OCc3ccccc3)[C@H]2OC(=O)c2ccccc2)cc1 [Compound 3] | did not significantly interact; also recorded: No fluorescence signals above background | did not significantly interact; also recorded: No fluorescence signals above background | did not significantly interact; also recorded: No fluorescence signals above background |  |  |  |  |  |  |  | 
2 | COc1ccc(OC2OC(COC(=O)CCC(F)(F)C(F)(F)C(F)(F)C(F)(F)C(F)(F)C(F)(F)C(F)(F)C(F)(F)F)C(OC3OC(COS(=O)(=O)O)C(OS(=O)(=O)O)C(OC4OC(COC(=O)C(C)(C)C)C(OC5OC(COS(=O)(=O)O)C(OS(=O)(=O)O)C(OC6OC(COC(=O)C(C)(C)C)C(OC7OC(COS(=O)(=O)O)C(OS(=O)(=O)O)C(OC(=O)CCC(C)=O)C7N7C(=O)c8ccccc8C7=O)C(OCc7ccccc7)C6OC(=O)c6ccccc6)C5N5C(=O)c6ccccc6C5=O)C(OCc5ccccc5)C4OC(=O)c4ccccc4)C3N3C(=O)c4ccccc4C3=O)C(OCc3ccccc3)C2OC(=O)c2ccccc2)cc1 (centres unmarked) [Compound 17] |  |  |  | did not interact | 57 ± 10 | 1600 ± 400 | did not interact | 428 nM and 479 nM and 431 nM | 450 ± 30 | 6300 ± 1600 | 16 ± 5
